What all share (format): functional
In one assay the test system is Klebsiella pneumoniae. As to the kind of experiment: Antibacterial activity against Klebsiella pneumoniae ATCC 13883 assessed as inhibition of bacterial growth measured after 24 hrs by broth microdilution method. (In general: In broth dilution the organism is exposed to a series of concentrations in liquid medium.)
The next assay deals with Pseudomonas aeruginosa. Description: Antibacterial activity against Pseudomonas aeruginosa PAO1 assessed as inhibition of bacterial growth measured after 24 hrs by broth microdilution method.
The test system of another assay is Staphylococcus aureus. As to the kind of experiment: Antibacterial activity against Staphylococcus aureus ATCC 25923 assessed as inhibition of bacterial growth measured after 24 hrs by broth microdilution method.

MIC data for eight compounds are collected here from ChEMBL document CHEMBL6115030, “Systematic All-Hydrocarbon Stapling Analysis for Cecropin A Generates a Potent and Stable Antimicrobial Peptide” (J Med Chem, 2025).

Converted amounts (≈) assume the structure as drawn. Bridge positions count the residues as written; N and C are the ends. Square brackets hold non-standard residues; d marks the D form. Peptide text beside a SMILES is read from it. R5 = C=CCCC[C@@](C)(N)C(=O)O; S5 = C=CCCC[C@](C)(N)C(=O)O

The MIC is the smallest concentration in the dilution series that meets the test's criterion for growth inhibition.

Consider `CC[C@H](C)[C@H](NC(=O)CNC(=O)[C@H](CC(=O)O)NC(=O)[C@H](CCCNC(=N)N)NC(=O)[C@@H](NC(=O)[C@H](CC(N)=O)NC(=O)[C@H](CCC(N)=O)NC(=O)CNC(=O)[C@@H](NC(=O)[C@H](CCCCN)NC(=O)[C@H](CCC(=O)O)NC(=O)[C@@H](NC(=O)[C@H](CCCCN)NC(=O)[C@H](CCCCN)NC(=O)[C@H](Cc1ccccc1)NC(=O)[C@H](CC(C)C)NC(=O)[C@H](CCCCN)NC(=O)[C@H](Cc1c[nH]c2ccccc12)NC(=O)[C@H](CCCCN)NC(C)=O)[C@@H](C)CC)C(C)C)[C@@H](C)CC)C(=O)N[C@H](C(=O)N[C@@H](CCCCN)C(=O)N[C@@H](C)C(=O)NCC(=O)N1CCC[C@H]1C(=O)N[C@@H](C)C(=O)N[C@H](C(=O)N[C@@]1(C)CCC/C=C\CCC[C@@](C)(C(=O)N[C@@H](C)C(=O)N[C@H](C(=O)N[C@@H](CCC(N)=O)C(=O)N[C@H](C(=O)N[C@@H](C)C(=O)N[C@@H](CCCCN)C(N)=O)[C@@H](C)CC)[C@@H](C)O)NC(=O)CNC(=O)[C@H](C(C)C)NC(=O)[C@H](C(C)C)NC1=O)C(C)C)[C@@H](C)CC` (Ac-KWKLFKKIEKVGQNIRDGIIKAGPAV[S5]VVG[S5]ATQIAK-NH2; staple (Z) 27-31), for which the minimum inhibitory concentration (MIC) stood at 6.25 µM (≈ 25.6 µg/mL) in the assay on Klebsiella pneumoniae, 6.25 µM (≈ 25.6 µg/mL) in the assay on Pseudomonas aeruginosa and 3.13 µM (≈ 12.8 µg/mL) in the assay on Staphylococcus aureus.

On to `CC[C@H](C)[C@H](NC(=O)CNC(=O)[C@H](CC(=O)O)NC(=O)[C@H](CCCNC(=N)N)NC(=O)[C@@H](NC(=O)[C@H](CC(N)=O)NC(=O)[C@H](CCC(N)=O)NC(=O)[C@]1(C)CCC/C=C\CCC[C@](C)(NC(=O)[C@H](CCCCN)NC(=O)[C@H](CCCCN)NC(=O)[C@H](Cc2ccccc2)NC(=O)[C@H](CC(C)C)NC(=O)[C@H](CCCCN)NC(=O)[C@H](Cc2c[nH]c3ccccc23)NC(=O)[C@H](CCCCN)NC(C)=O)C(=O)N[C@@H](CCC(=O)O)C(=O)N[C@@H](CCCCN)C(=O)N[C@@H](C(C)C)C(=O)N1)[C@@H](C)CC)C(=O)N[C@H](C(=O)N[C@@H](CCCCN)C(=O)N[C@@H](C)C(=O)NCC(=O)N1CCC[C@H]1C(=O)N[C@@H](C)C(=O)N[C@H](C(=O)N[C@@H](C)C(=O)N[C@H](C(=O)N[C@H](C(=O)NCC(=O)N[C@@H](CCC(N)=O)C(=O)N[C@@H](C)C(=O)N[C@H](C(=O)N[C@@H](CCC(N)=O)C(=O)N[C@H](C(=O)N[C@@H](C)C(=O)N[C@@H](CCCCN)C(N)=O)[C@@H](C)CC)[C@@H](C)O)C(C)C)C(C)C)C(C)C)[C@@H](C)CC` (Ac-KWKLFKK[S5]EKV[S5]QNIRDGIIKAGPAVAVVGQATQIAK-NH2; staple (Z) 8-12), for which the minimum inhibitory concentration (MIC) with Klebsiella pneumoniae is 6.25 µM (≈ 25.8 µg/mL); in the assay with Pseudomonas aeruginosa it was greater than 100 µM; in the assay on Staphylococcus aureus it was 6.25 µM (≈ 25.8 µg/mL).

As for `CC[C@H](C)[C@H](NC(=O)CNC(=O)[C@H](CC(=O)O)NC(=O)[C@H](CCCNC(=N)N)NC(=O)[C@@H](NC(=O)[C@H](CC(N)=O)NC(=O)[C@H](CCC(N)=O)NC(=O)CNC(=O)[C@@H](NC(=O)[C@H](CCCCN)NC(=O)[C@H](CCC(=O)O)NC(=O)[C@@H](NC(=O)[C@]1(C)CCC/C=C\CCC[C@](C)(NC(=O)[C@H](Cc2c[nH]c3ccccc23)NC(=O)[C@H](CCCCN)NC(C)=O)C(=O)N[C@@H](CC(C)C)C(=O)N[C@@H](Cc2ccccc2)C(=O)N[C@@H](CCCCN)C(=O)N1)[C@@H](C)CC)C(C)C)[C@@H](C)CC)C(=O)N[C@H](C(=O)N[C@@H](CCCCN)C(=O)N[C@@H](C)C(=O)NCC(=O)N1CCC[C@H]1C(=O)N[C@@H](C)C(=O)N[C@H](C(=O)N[C@@H](C)C(=O)N[C@H](C(=O)N[C@H](C(=O)NCC(=O)N[C@@H](CCC(N)=O)C(=O)N[C@@H](C)C(=O)N[C@H](C(=O)N[C@@H](CCC(N)=O)C(=O)N[C@H](C(=O)N[C@@H](C)C(=O)N[C@@H](CCCCN)C(N)=O)[C@@H](C)CC)[C@@H](C)O)C(C)C)C(C)C)C(C)C)[C@@H](C)CC` (Ac-KW[S5]LFK[S5]IEKVGQNIRDGIIKAGPAVAVVGQATQIAK-NH2; staple (Z) 3-7), the MIC with Klebsiella pneumoniae, in the assay on Pseudomonas aeruginosa and with Staphylococcus aureus was greater than 100 µM throughout.

Turning to `CC[C@H](C)[C@H](NC(=O)CNC(=O)[C@H](CC(=O)O)NC(=O)[C@H](CCCNC(=N)N)NC(=O)[C@]1(C)CCC/C=C\CCC[C@](C)(NC(=O)[C@H](CCCCN)NC(=O)[C@H](CCC(=O)O)NC(=O)[C@@H](NC(=O)[C@H](CCCCN)NC(=O)[C@H](CCCCN)NC(=O)[C@H](Cc2ccccc2)NC(=O)[C@H](CC(C)C)NC(=O)[C@H](CCCCN)NC(=O)[C@H](Cc2c[nH]c3ccccc23)NC(=O)[C@H](CCCCN)NC(C)=O)[C@@H](C)CC)C(=O)NCC(=O)N[C@@H](CCC(N)=O)C(=O)N[C@@H](CC(N)=O)C(=O)N1)C(=O)N[C@H](C(=O)N[C@@H](CCCCN)C(=O)N[C@@H](C)C(=O)NCC(=O)N1CCC[C@H]1C(=O)N[C@@H](C)C(=O)N[C@H](C(=O)N[C@@H](C)C(=O)N[C@H](C(=O)N[C@H](C(=O)NCC(=O)N[C@@H](CCC(N)=O)C(=O)N[C@@H](C)C(=O)N[C@H](C(=O)N[C@@H](CCC(N)=O)C(=O)N[C@H](C(=O)N[C@@H](C)C(=O)N[C@@H](CCCCN)C(N)=O)[C@@H](C)CC)[C@@H](C)O)C(C)C)C(C)C)C(C)C)[C@@H](C)CC` (Ac-KWKLFKKIEK[S5]GQN[S5]RDGIIKAGPAVAVVGQATQIAK-NH2; staple (Z) 11-15), the values for the minimal inhibitory concentration (MIC) in the assay with Klebsiella pneumoniae, in the assay on Pseudomonas aeruginosa and with Staphylococcus aureus were 6.25 µM (≈ 25.5 µg/mL), 80 µM (≈ 327 µg/mL) and 25 µM (≈ 102 µg/mL), respectively.

`CC[C@H](C)[C@H](NC(=O)CNC(=O)[C@H](CC(=O)O)NC(=O)[C@H](CCCNC(=N)N)NC(=O)[C@@H](NC(=O)[C@H](CC(N)=O)NC(=O)[C@H](CCC(N)=O)NC(=O)CNC(=O)[C@]1(C)CCC/C=C\CCC[C@](C)(NC(=O)[C@H](CCCCN)NC(=O)[C@H](Cc2ccccc2)NC(=O)[C@H](CC(C)C)NC(=O)[C@H](CCCCN)NC(=O)[C@H](Cc2c[nH]c3ccccc23)NC(=O)[C@H](CCCCN)NC(C)=O)C(=O)N[C@@H]([C@@H](C)CC)C(=O)N[C@@H](CCC(=O)O)C(=O)N[C@@H](CCCCN)C(=O)N1)[C@@H](C)CC)C(=O)N[C@H](C(=O)N[C@@H](CCCCN)C(=O)N[C@@H](C)C(=O)NCC(=O)N1CCC[C@H]1C(=O)N[C@@H](C)C(=O)N[C@H](C(=O)N[C@@H](C)C(=O)N[C@H](C(=O)N[C@H](C(=O)NCC(=O)N[C@@H](CCC(N)=O)C(=O)N[C@@H](C)C(=O)N[C@H](C(=O)N[C@@H](CCC(N)=O)C(=O)N[C@H](C(=O)N[C@@H](C)C(=O)N[C@@H](CCCCN)C(N)=O)[C@@H](C)CC)[C@@H](C)O)C(C)C)C(C)C)C(C)C)[C@@H](C)CC` (Ac-KWKLFK[S5]IEK[S5]GQNIRDGIIKAGPAVAVVGQATQIAK-NH2; staple (Z) 7-11): the results for the minimal inhibitory concentration (MIC) in the assay on Klebsiella pneumoniae, with Pseudomonas aeruginosa and with Staphylococcus aureus were 6.25 µM (≈ 25.4 µg/mL), greater than 100 µM and greater than 100 µM, respectively.

On to `CC[C@H](C)[C@H](NC(=O)[C@H](CCC(N)=O)NC(=O)[C@@H](NC(=O)[C@H](C)NC(=O)[C@H](CCC(N)=O)NC(=O)CNC(=O)[C@@H](NC(=O)[C@@H](NC(=O)[C@H](C)NC(=O)[C@@H](NC(=O)[C@H](C)NC(=O)[C@@H]1CCCN1C(=O)CNC(=O)[C@]1(C)CCC/C=C\CCC[C@](C)(NC(=O)[C@H](CC(=O)O)NC(=O)[C@H](CCCNC(=N)N)NC(=O)[C@@H](NC(=O)[C@H](CC(N)=O)NC(=O)[C@H](CCC(N)=O)NC(=O)CNC(=O)[C@@H](NC(=O)[C@H](CCCCN)NC(=O)[C@H](CCC(=O)O)NC(=O)[C@@H](NC(=O)[C@H](CCCCN)NC(=O)[C@H](CCCCN)NC(=O)[C@H](Cc2ccccc2)NC(=O)[C@H](CC(C)C)NC(=O)[C@H](CCCCN)NC(=O)[C@H](Cc2c[nH]c3ccccc23)NC(=O)[C@H](CCCCN)NC(C)=O)[C@@H](C)CC)C(C)C)[C@@H](C)CC)C(=O)N[C@@H]([C@@H](C)CC)C(=O)N[C@@H]([C@@H](C)CC)C(=O)N[C@@H](CCCCN)C(=O)N1)C(C)C)C(C)C)C(C)C)[C@@H](C)O)C(=O)N[C@@H](C)C(=O)N[C@@H](CCCCN)C(N)=O` (Ac-KWKLFKKIEKVGQNIRD[S5]IIK[S5]GPAVAVVGQATQIAK-NH2; staple (Z) 18-22), for which the MIC in the assay with Klebsiella pneumoniae, in the assay with Pseudomonas aeruginosa and in the assay with Staphylococcus aureus was 3.13 µM (≈ 13 µg/mL) in each case.

`CC[C@H](C)[C@@H]1NC(=O)CNC(=O)[C@](C)(NC(=O)[C@H](CCCNC(=N)N)NC(=O)[C@@H](NC(=O)[C@H](CC(N)=O)NC(=O)[C@H](CCC(N)=O)NC(=O)CNC(=O)[C@@H](NC(=O)[C@H](CCCCN)NC(=O)[C@H](CCC(=O)O)NC(=O)[C@@H](NC(=O)[C@H](CCCCN)NC(=O)[C@H](CCCCN)NC(=O)[C@H](Cc2ccccc2)NC(=O)[C@H](CC(C)C)NC(=O)[C@H](CCCCN)NC(=O)[C@H](Cc2c[nH]c3ccccc23)NC(=O)[C@H](CCCCN)NC(C)=O)[C@@H](C)CC)C(C)C)[C@@H](C)CC)CCC/C=C\CCC[C@](C)(C(=O)N[C@@H](C)C(=O)NCC(=O)N2CCC[C@H]2C(=O)N[C@@H](C)C(=O)N[C@H](C(=O)N[C@@H](C)C(=O)N[C@H](C(=O)N[C@H](C(=O)NCC(=O)N[C@@H](CCC(N)=O)C(=O)N[C@@H](C)C(=O)N[C@H](C(=O)N[C@@H](CCC(N)=O)C(=O)N[C@H](C(=O)N[C@@H](C)C(=O)N[C@@H](CCCCN)C(N)=O)[C@@H](C)CC)[C@@H](C)O)C(C)C)C(C)C)C(C)C)NC(=O)[C@H]([C@@H](C)CC)NC1=O` (Ac-KWKLFKKIEKVGQNIR[R5]GII[R5]AGPAVAVVGQATQIAK-NH2; staple (Z) 17-21): the values for the MIC with Klebsiella pneumoniae, with Pseudomonas aeruginosa and with Staphylococcus aureus were 25 µM (≈ 101 µg/mL), greater than 100 µM and 6.25 µM (≈ 25.3 µg/mL), respectively.

With `CC[C@H](C)[C@H](NC(=O)CNC(=O)[C@H](CC(=O)O)NC(=O)[C@H](CCCNC(=N)N)NC(=O)[C@@H](NC(=O)[C@H](CC(N)=O)NC(=O)[C@H](CCC(N)=O)NC(=O)CNC(=O)[C@@H](NC(=O)[C@H](CCCCN)NC(=O)[C@H](CCC(=O)O)NC(=O)[C@@H](NC(=O)[C@H](CCCCN)NC(=O)[C@]1(C)CCC/C=C\CCC[C@](C)(NC(=O)[C@H](CCCCN)NC(C)=O)C(=O)N[C@@H](CCCCN)C(=O)N[C@@H](CC(C)C)C(=O)N[C@@H](Cc2ccccc2)C(=O)N1)[C@@H](C)CC)C(C)C)[C@@H](C)CC)C(=O)N[C@H](C(=O)N[C@@H](CCCCN)C(=O)N[C@@H](C)C(=O)NCC(=O)N1CCC[C@H]1C(=O)N[C@@H](C)C(=O)N[C@H](C(=O)N[C@@H](C)C(=O)N[C@H](C(=O)N[C@H](C(=O)NCC(=O)N[C@@H](CCC(N)=O)C(=O)N[C@@H](C)C(=O)N[C@H](C(=O)N[C@@H](CCC(N)=O)C(=O)N[C@H](C(=O)N[C@@H](C)C(=O)N[C@@H](CCCCN)C(N)=O)[C@@H](C)CC)[C@@H](C)O)C(C)C)C(C)C)C(C)C)[C@@H](C)CC` (Ac-K[S5]KLF[S5]KIEKVGQNIRDGIIKAGPAVAVVGQATQIAK-NH2; staple (Z) 2-6), the MIC in the assay on Klebsiella pneumoniae, in the assay with Pseudomonas aeruginosa and with Staphylococcus aureus was greater than 100 µM in each case.
